The values that follow are results of earlier work, collected in US7338780B2, “Method for producing tripeptides and/or peptides longer than tripeptides” (Ajinomoto Co., Inc., priority 2002, dated 2008).

Molecules are shown by their SMILES. Residues, ends and D or L forms follow the SMILES beside them.

Regarding `C[C@H](N)C(=O)N[C@@H](CCC(N)=O)C(=O)O` [L-alanyl-L-glutamine] (H-Ala-Gln-OH), the “water-solubility compared with L-glutamine” value is on record as “higher”.
